In the test the test system is HBL-1 cells. In words: Apoptosis assay, AnnexinV-FITC/propidium iodide FCM. The format is cell-based, Human. To be noted: HBL-1, treatment for 18 hours (legend: 24 hours). The protocol:
Figure 1 The chemical structure of SKLB-850 and its anti-tumor effects in vitro (A) The chemical structure of SKLB-850. (B and C) Apoptosis of Ramos cells induced by SKLB-850. Cells were treated by vehicle, R788 or indicated concentrations of compounds. […]
The ability of SKLB-850 to induce apoptosis of BCL cells was analyzed by FCM. […]
Flow cytometry (FCM) assays were performed to investigate the apoptosis of Ramos and HBL-1 cells induced by SKLB-850. […] Cell apoptosis was analyzed with a flow cytometer (BD FACSCalibur, BD, USA).

`CN1CCN(c2ccc(Nc3ncc(F)c(Nc4ccc(Cl)cc4C(N)=O)n3)cc2)CC1` [SKLB-850, 5-chloro-2-((5-fluoro-2-((4-(4-methylpiperazin-1-yl)phenyl)amino)pyrimidin-4-yl)amino) benzamide]: the “percentages of apoptotic cells (in words)” value was “dose-dependently increased”.

With `COc1cc(Nc2ncc(F)c(Nc3ccc4c(n3)N(COP(=O)(O)O)C(=O)C(C)(C)O4)n2)cc(OC)c1OC` [R788, reference compound], the “percentages of apoptotic cells (in words)” value is “induced apoptosis but obviously much weaker”.

The record behind these values is article PMC5762338, “A novel orally available Syk/Src/Jak2 inhibitor, SKLB-850, showed potent anti-tumor activities in B cell lymphoma (BCL) models” (Oncotarget, 2017).
